Experimental data reported in patent US20250313574A1, “SIALIC ACID DERIVATIVES AND METHODS OF USING SAME” (EISAI R&D MANAGEMENT CO., LTD., priority 2022, published 2025).

Experiments:
[1] = target: Recombinant Human Siglec-3/CD33 protein (His-CD33) (Homo sapiens (Human), UniProt P20138); assay: Differential scanning fluorimetry (DSF) thermal shift assay; assay type: binding; conditions: thermal melt shift of 0.5 μM CD33 protein with 50 μM compound
[2] = target: Recombinant human CD33 protein (Homo sapiens (Human), UniProt P20138); assay: CD33 competitive binding assay for HTS drug screen (fluorescent multivalent sialic acid probe)
Sequence of Recombinant human CD33 protein (P20138 18-259): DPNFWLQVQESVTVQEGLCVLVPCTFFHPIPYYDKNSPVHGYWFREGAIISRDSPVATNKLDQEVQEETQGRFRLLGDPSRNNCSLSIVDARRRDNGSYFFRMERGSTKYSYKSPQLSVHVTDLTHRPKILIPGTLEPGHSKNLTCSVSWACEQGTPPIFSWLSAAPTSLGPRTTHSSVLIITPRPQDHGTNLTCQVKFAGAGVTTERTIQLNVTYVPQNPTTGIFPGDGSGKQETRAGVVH
Summary of the method: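 Recombinant human CD33, coated overnight at 4° C from 10 μg/ml in pH 5.5 acetate, was preincubated briefly with compound. It was then exposed to a multivalent neutravidin/FITC/sialic acid analog A-375 probe (final 5 μM neutravidin, 15 μM A-375, 5 μM FITC) for 30 min at room temperature. After washing, bound FITC fluorescence was read.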

Sequence of Recombinant Human Siglec-3/CD33 protein (His-CD33) (P20138 18-259): as above

Row | DSF (dTmD) [1] | EC50 [2] | SMILES
1 | 6.4 | 340 nM | CC(=O)N[C@H]1[C@H]([C@H](O)[C@H](O)CNC(=O)c2ccc(-c3ncn[nH]3)cc2)O[C@@](CCN2CCOC[C@@]23CCN(C(=O)OC(C)(C)C)C3)(C(=O)O)C[C@@H]1O [A-142]
2 | 7.8 | 334 nM | CC(=O)N[C@H]1[C@H]([C@H](O)[C@H](O)CNC(=O)c2ccc(N3CCN(C)CC3)cc2)O[C@@](CCN2CCOC[C@@]23CCN(C(=O)OC(C)(C)C)C3)(C(=O)O)C[C@@H]1O [A-143]
3 | 11.0 | 230 nM | CC(=O)N[C@H]1[C@H]([C@H](O)[C@H](O)CNC(=O)c2ccc(C(F)(F)F)c(C)c2)O[C@@](CCN2CCOC[C@@]23CCN(C(=O)OC(C)(C)C)C3)(C(=O)O)C[C@@H]1O [A-144]
4 | 9.6 | 610 nM | CC(=O)N[C@H]1[C@H]([C@H](O)[C@H](O)CNC(=O)c2ccc(C)c(C(F)(F)F)c2)O[C@@](CCN2CCOC[C@@]23CCN(C(=O)OC(C)(C)C)C3)(C(=O)O)C[C@@H]1O [A-145]
5 | 10.6 | 262 nM | CC(=O)N[C@H]1[C@H]([C@H](O)[C@H](O)CNC(=O)c2ccc(C(F)(F)F)c(O)c2)O[C@@](CCN2CCOC[C@@]23CCN(C(=O)OC(C)(C)C)C3)(C(=O)O)C[C@@H]1O [A-146]
6 | 10.6 | 127 nM | CC(=O)N[C@H]1[C@H]([C@H](O)[C@H](O)CNC(=O)c2ccc(O)c(C(F)(F)F)c2)O[C@@](CCN2CCOC[C@@]23CCN(C(=O)OC(C)(C)C)C3)(C(=O)O)C[C@@H]1O [A-147]
7 | 9.9 | 197 nM | COc1cc(C(=O)NC[C@@H](O)[C@@H](O)[C@@H]2O[C@@](CCN3CCOC[C@@]34CCN(C(=O)OC(C)(C)C)C4)(C(=O)O)C[C@H](O)[C@H]2NC(C)=O)cc(OC)c1OC [A-148]
8 | 10.7 | 133 nM | CC(=O)N[C@H]1[C@H]([C@H](O)[C@H](O)CNC(=O)c2ccc(C)c(F)c2)O[C@@](CCN2CCOC[C@@]23CCN(C(=O)OC(C)(C)C)C3)(C(=O)O)C[C@@H]1O [A-149]
9 | 9.6 | 219 nM | CC(=O)N[C@H]1[C@H]([C@H](O)[C@H](O)CNC(=O)c2ccc3c(c2)N(C)C(=O)CO3)O[C@@](CCN2CCOC[C@@]23CCN(C(=O)OC(C)(C)C)C3)(C(=O)O)C[C@@H]1O [A-150]
10 | 8.9 | 206 nM | CC(=O)N[C@H]1[C@H]([C@H](O)[C@H](O)CNC(=O)c2ccc3cn[nH]c3c2)O[C@@](CCN2CCOC[C@@]23CCN(C(=O)OC(C)(C)C)C3)(C(=O)O)C[C@@H]1O [A-151]
11 | 7.4 | 510 nM | CC(=O)N[C@H]1[C@H]([C@H](O)[C@H](O)CNC(=O)c2ccc(O)c(NC=O)c2)O[C@@](CCN2CCOC[C@@]23CCN(C(=O)OC(C)(C)C)C3)(C(=O)O)C[C@@H]1O [A-152]
12 | 10.1 | 196 nM | CC(=O)N[C@H]1[C@H]([C@H](O)[C@H](O)CNC(=O)c2ccc3nsnc3c2)O[C@@](CCN2CCOC[C@@]23CCN(C(=O)OC(C)(C)C)C3)(C(=O)O)C[C@@H]1O [A-153]
13 | 9.3 | 137 nM | CC(=O)N[C@H]1[C@H]([C@H](O)[C@H](O)CNC(=O)c2cc(C)n(C)n2)O[C@@](CCN2CCOC[C@@]23CCN(C(=O)OC(C)(C)C)C3)(C(=O)O)C[C@@H]1O [A-154]
14 | 10.1 | 200 nM | CCc1cccc(C(=O)NC[C@@H](O)[C@@H](O)[C@@H]2O[C@@](CCN3CCOC[C@@]34CCN(C(=O)OC(C)(C)C)C4)(C(=O)O)C[C@H](O)[C@H]2NC(C)=O)c1 [A-155]
15 | 8.9 | 138 nM | CC(=O)N[C@H]1[C@H]([C@H](O)[C@H](O)CNC(=O)c2cc(C)[nH]n2)O[C@@](CCN2CCOC[C@@]23CCN(C(=O)OC(C)(C)C)C3)(C(=O)O)C[C@@H]1O [A-156]
16 | 10.3 | 80 nM | CC(=O)N[C@H]1[C@H]([C@H](O)[C@H](O)CNC(=O)c2cc(Cl)[nH]n2)O[C@@](CCN2CCOC[C@@]23CCN(C(=O)OC(C)(C)C)C3)(C(=O)O)C[C@@H]1O [A-157]
17 | 10.4 | 133 nM | CC(=O)N[C@H]1[C@H]([C@H](O)[C@H](O)CNC(=O)c2coc(C)c2)O[C@@](CCN2CCOC[C@@]23CCN(C(=O)OC(C)(C)C)C3)(C(=O)O)C[C@@H]1O [A-158]
18 | 11.4 | 238 nM | CC(=O)N[C@H]1[C@H]([C@H](O)[C@H](O)CNC(=O)c2cc(Cl)c(F)c(Cl)c2)O[C@@](CCN2CCOC[C@@]23CCN(C(=O)OC(C)(C)C)C3)(C(=O)O)C[C@@H]1O [A-159]
19 | 8.0 | 680 nM | CC(=O)N[C@H]1[C@H]([C@H](O)[C@H](O)CNC(=O)c2cc(C)oc2C(F)(F)F)O[C@@](CCN2CCOC[C@@]23CCN(C(=O)OC(C)(C)C)C3)(C(=O)O)C[C@@H]1O [A-160]

Row | DSF (dTmD) [1] | EC50 [2] | SMILES
20 | 5.9 | 1080 nM | CC(=O)N[C@H]1[C@H]([C@H](O)[C@H](O)CNC(=O)c2cn[nH]c2)O[C@@](CCN2CCOC[C@@]23CCN(C(=O)OC(C)(C)C)C3)(C(=O)O)C[C@@H]1O [A-161]
21 | 4.8 | 4210 nM | CCC/C(C)=C/C(=O)NC[C@@H](O)[C@@H](O)[C@@H]1O[C@@](CCN2CCOC[C@@]23CCN(C(=O)OC(C)(C)C)C3)(C(=O)O)C[C@H](O)[C@H]1NC(C)=O [A-162]
22 | 5.7 | 700 nM | C/C=C/C=C/C(=O)NC[C@@H](O)[C@@H](O)[C@@H]1O[C@@](CCN2CCOC[C@@]23CCN(C(=O)OC(C)(C)C)C3)(C(=O)O)C[C@H](O)[C@H]1NC(C)=O [A-163]
23 | 5.3 | 1560 nM | CNC(=O)c1c(C)cc(C(=O)NC[C@@H](O)[C@@H](O)[C@@H]2O[C@@](CCN3CCOC[C@@]34CCN(C(=O)OC(C)(C)C)C4)(C(=O)O)C[C@H](O)[C@H]2NC(C)=O)cc1C [A-164]
24 | 5.7 | 1140 nM | COc1cc(C(=O)NC[C@@H](O)[C@@H](O)[C@@H]2O[C@@](CCN3CCOC[C@@]34CCN(C(=O)OC(C)(C)C)C4)(C(=O)O)C[C@H](O)[C@H]2NC(C)=O)ccc1C#N [A-165]
25 | 6.9 | 4000 nM | CC(=O)N[C@H]1[C@H]([C@H](O)[C@H](O)CNC(=O)c2cc(F)c(C(F)(F)F)c(F)c2)O[C@@](CCN2CCOC[C@@]23CCN(C(=O)OC(C)(C)C)C3)(C(=O)O)C[C@@H]1O [A-166]
26 | 7.9 | 3340 nM | CC(=O)N[C@H]1[C@H]([C@H](O)[C@H](O)CNC(=O)c2ccc(C(F)(F)F)c(C(F)(F)F)c2)O[C@@](CCN2CCOC[C@@]23CCN(C(=O)OC(C)(C)C)C3)(C(=O)O)C[C@@H]1O [A-167]
27 | 8.3 | 1970 nM | CC(=O)N[C@H]1[C@H]([C@H](O)[C@H](O)CNC(=O)c2cc(C(F)(F)F)cc(C(F)(F)F)c2)O[C@@](CCN2CCOC[C@@]23CCN(C(=O)OC(C)(C)C)C3)(C(=O)O)C[C@@H]1O [A-168]
28 | 6.2 | 4720 nM | CC(=O)N[C@H]1[C@H]([C@H](O)[C@H](O)CNC(=O)c2cccc(SC(F)(F)F)c2)O[C@@](CCN2CCOC[C@@]23CCN(C(=O)OC(C)(C)C)C3)(C(=O)O)C[C@@H]1O [A-169]
29 | 6.0 | 3870 nM | CC(=O)N[C@H]1[C@H]([C@H](O)[C@H](O)CNC(=O)c2ccc(=O)n(C)c2)O[C@@](CCN2CCOC[C@@]23CCN(C(=O)OC(C)(C)C)C3)(C(=O)O)C[C@@H]1O [A-170]
30 | 3.6 | 10300 nM | CC(=O)N[C@H]1[C@H]([C@H](O)[C@H](O)CNC(=O)c2ccc(=O)[nH]c2)O[C@@](CCN2CCOC[C@@]23CCN(C(=O)OC(C)(C)C)C3)(C(=O)O)C[C@@H]1O [A-171]
31 | 7.6 | 820 nM | CC(=O)N[C@H]1[C@H]([C@H](O)[C@H](O)CNC(=O)c2cc(Br)ccc2F)O[C@@](CCN2CCOC[C@@]23CCN(C(=O)OC(C)(C)C)C3)(C(=O)O)C[C@@H]1O [A-172]
32 | 6.6 | 1170 nM | CC(=O)N[C@H]1[C@H]([C@H](O)[C@H](O)CNC(=O)c2cn(C)nc2C(F)(F)F)O[C@@](CCN2CCOC[C@@]23CCN(C(=O)OC(C)(C)C)C3)(C(=O)O)C[C@@H]1O [A-174]
33 | 4.6 | 4110 nM | CC(=O)N[C@H]1[C@H]([C@H](O)[C@H](O)CNC(=O)c2c[nH]nc2C(F)(F)F)O[C@@](CCN2CCOC[C@@]23CCN(C(=O)OC(C)(C)C)C3)(C(=O)O)C[C@@H]1O [A-175]
34 | 7.5 | 670 nM | CC(=O)N[C@H]1[C@H]([C@H](O)[C@H](O)CNC(=O)c2cnn(C)c2)O[C@@](CCN2CCOC[C@@]23CCN(C(=O)OC(C)(C)C)C3)(C(=O)O)C[C@@H]1O [A-177]
35 | 9.5 | 146 nM | CC(=O)N[C@H]1[C@H]([C@H](O)[C@H](O)CNC(=O)c2ccc3[nH]nnc3c2)O[C@@](CCN2CCOC[C@@]23CCN(C(=O)OC(C)(C)C)C3)(C(=O)O)C[C@@H]1O [A-178]
36 | 7.7 | 217 nM | CC(=O)N[C@H]1[C@H]([C@H](O)[C@H](O)CNC(=O)c2cc(-c3csc(C)n3)on2)O[C@@](CCN2CCOC[C@@]23CCN(C(=O)OC(C)(C)C)C3)(C(=O)O)C[C@@H]1O [A-179]
37 | 10.9 | 74 nM | CC(=O)N[C@H]1[C@H]([C@H](O)[C@H](O)CNC(=O)c2ccc(C)c(C)c2)O[C@@](CCN2CCOC[C@@]23CCN(C(=O)OC(C)(C)C)C3)(C(=O)O)C[C@@H]1O [A-180]
38 | 10.9 | 70 nM | CC(=O)N[C@H]1[C@H]([C@H](O)[C@H](O)CNC(=O)c2cccc(C)c2)O[C@@](CCN2CCOC[C@@]23CCN(C(=O)OC(C)(C)C)C3)(C(=O)O)C[C@@H]1O [A-181]
